The record followed here is PubChem BioAssay AID256 (DTP/NCI, 2004).

The structures appear in SMILES notation. Values joined by “and” are separate entries in the source; they are usually repeats but may differ in a detail not shown here. Identical values can stand only once. Toxic doses and inconclusive results are not listed.

The test system of this test is CD2F1 mice, L1210 leukemia ip, survival T/C. The test is described as follows: NCI In Vivo Anticancer Drug Screen. Data for tumor model L1210 Leukemia (intraperitoneal) in CD2F1 (CDF1) mice. The conditions noted are these: higher = longer survival. In a few lines: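 Tumor-bearing mice (transplanted tumor) were split into treated and vehicle control groups, and the measured endpoint of each treated group was divided by that of its vehicle controls.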

[1] abbreviates: endpoint: mean survival time, dose: 100.0 mg/kg/injection, schedule: Q01DX001 (ip), vehicle: saline with Tween-80.
[2] abbreviates: endpoint: mean survival time, dose: 200.0 mg/kg/injection, schedule: Q01DX001 (ip), vehicle: saline with Tween-80.
Setting [3] is: endpoint: mean survival time, dose: 400.0 mg/kg/injection, schedule: Q01DX001 (ip), vehicle: saline with Tween-80.
[4] abbreviates: endpoint: mean survival time, dose: 100.0 mg/kg/injection, schedule: Q01DX009 (ip), vehicle: Klucel (hydroxypropylcellulose) (HPC).
The mark [5] stands for this setting: endpoint: mean survival time, dose: 200.0 mg/kg/injection, schedule: Q01DX009 (ip), vehicle: Klucel (hydroxypropylcellulose) (HPC).
[6] abbreviates: endpoint: mean survival time, dose: 100.0 mg/kg/injection, schedule: Q04DX003 (ip), vehicle: saline with Tween-80.
[7] abbreviates: endpoint: mean survival time, dose: 200.0 mg/kg/injection, schedule: Q04DX003 (ip), vehicle: saline with Tween-80.
The mark [8] stands for this setting: endpoint: mean survival time, dose: 400.0 mg/kg/injection, schedule: Q04DX003 (ip), vehicle: saline with Tween-80.
[9] abbreviates: endpoint: mean survival time, dose: 50.0 mg/kg/injection, schedule: Q04DX002 (ip), vehicle: saline with Tween-80.
[10] abbreviates: endpoint: mean survival time, dose: 100.0 mg/kg/injection, schedule: Q04DX002 (ip), vehicle: saline with Tween-80.

Turning to `O=C1NC(=O)c2ccc3c4c(ccc1c24)C(=O)NC3=O`, the T/C is, setting by setting: (endpoint: mean survival time, dose: 15.5 mg/kg/injection, schedule: Q01DX009 (ip), vehicle: saline with Tween-80) 100 % of control; (endpoint: mean survival time, dose: 31.0 mg/kg/injection, schedule: Q01DX009 (ip), vehicle: saline with Tween-80) 94 % of control; (endpoint: mean survival time, dose: 62.0 mg/kg/injection, schedule: Q01DX009 (ip), vehicle: saline with Tween-80) 100 % of control; (endpoint: mean survival time, dose: 62.5 mg/kg/injection, schedule: Q01DX009 (ip), vehicle: saline with Tween-80) 98 % of control.
Take `CCCCNC(C)(C)C(S)c1ccc(Cl)cc1` (stereo not drawn): the T/C runs as follows: (endpoint: mean survival time, dose: 12.0 mg/kg/injection, schedule: Q04DX003 (ip), vehicle: other) 96 % of control; (endpoint: mean survival time, dose: 25.0 mg/kg/injection, schedule: Q04DX003 (ip), vehicle: other) 105 % of control; (endpoint: mean survival time, dose: 50.0 mg/kg/injection, schedule: Q04DX003 (ip), vehicle: other) 94 % of control.
Take `Nc1nc(=O)n(CCCOc2cccc(NC(=O)c3ccccc3)c2)cc1-c1ccc(Cl)c(Cl)c1`: the T/C runs as follows: under setting [1], 91 % of control; under setting [2], 94 % of control; under setting [3], 97 % of control.
For `CSc1nc(N)c2c(ncn2C2OC(CO)C(O)C2O)n1` (stereo not drawn), the T/C runs as follows: (endpoint: mean survival time, dose: 100.0 mg/kg/injection, schedule: Q01DX001 (ip), vehicle: saline) 105 % of control; (endpoint: mean survival time, dose: 200.0 mg/kg/injection, schedule: Q01DX001 (ip), vehicle: saline) 100 % of control; (endpoint: mean survival time, dose: 400.0 mg/kg/injection, schedule: Q01DX001 (ip), vehicle: saline) 97 % of control.
Take `O=c1[nH]cc(NCCCCc2ccccc2)c(=O)[nH]1`: the T/C by setting is: under setting [1], 94 % of control; under setting [2], 95 % of control; under setting [3], 92 % of control.
In the case of `O=C(O)CCCCCCCCC(=O)O` (tested in a mixture with another compound), the T/C runs as follows: (endpoint: mean survival time, dose: 50.0 mg/kg/injection, schedule: Q01DX009 (ip), vehicle: saline with Tween-80) 100 % of control; (endpoint: mean survival time, dose: 100.0 mg/kg/injection, schedule: Q01DX009 (ip), vehicle: saline with Tween-80) 100 % of control; (endpoint: mean survival time, dose: 200.0 mg/kg/injection, schedule: Q01DX009 (ip), vehicle: saline with Tween-80) 102 % of control.
In the case of `COc1cc(C(=O)c2cc3c(cc2C)OCO3)cc(OC)c1OC`, the T/C is 102 % of control and 105 % of control (endpoint: mean survival time, dose: 6.25 mg/kg/injection, schedule: Q01DX009 (ip), vehicle: Klucel (hydroxypropylcellulose) (HPC)); 100 % of control and 102 % of control (endpoint: mean survival time, dose: 12.5 mg/kg/injection, schedule: Q01DX009 (ip), vehicle: Klucel (hydroxypropylcellulose) (HPC)); 105 % of control and 107 % of control (endpoint: mean survival time, dose: 25.0 mg/kg/injection, schedule: Q01DX009 (ip), vehicle: Klucel (hydroxypropylcellulose) (HPC)); 113 % of control and 98 % of control (endpoint: mean survival time, dose: 50.0 mg/kg/injection, schedule: Q01DX009 (ip), vehicle: Klucel (hydroxypropylcellulose) (HPC)); 105 % of control under setting [4]; 114 % of control under setting [5].
Regarding `CCCNC(=O)Oc1ccc(C(=O)OCC)cc1`, the T/C was 97 % of control (endpoint: mean survival time, dose: 100.0 mg/kg/injection, schedule: Q04DX003 (ip), vehicle: saline); 101 % of control (endpoint: mean survival time, dose: 200.0 mg/kg/injection, schedule: Q04DX003 (ip), vehicle: saline); 106 % of control (endpoint: mean survival time, dose: 400.0 mg/kg/injection, schedule: Q04DX003 (ip), vehicle: saline).
On to `Cc1ccc(NC(=O)Nc2ccccc2C(N)=O)c([N+](=O)[O-])c1`, for which the T/C was 95 % of control under setting [4]; 89 % of control under setting [5]; 95 % of control (endpoint: mean survival time, dose: 400.0 mg/kg/injection, schedule: Q01DX009 (ip), vehicle: Klucel (hydroxypropylcellulose) (HPC)).
Consider `CCCCC(OC(=O)c1ccc([N+](=O)[O-])cc1)C(C)[N+](=O)[O-]` (stereo not drawn), for which the T/C runs as follows: under setting [6], 104 % of control; under setting [7], 97 % of control; under setting [8], 104 % of control.
Turning to `N#CC(C#N)CN(C1=NCCO1)c1cccc2c1CCCC2`, the T/C was 94 % of control (endpoint: mean survival time, dose: 25.0 mg/kg/injection, schedule: Q04DX002 (ip), vehicle: saline with Tween-80); 94 % of control under setting [9]; 98 % of control under setting [10]; 89 % of control under setting [6]; 89 % of control under setting [8].
Consider `CC(Br)(C(=O)O)C1CCCCC1` (stereo not drawn), for which the T/C is, setting by setting: under setting [1], 93 % of control; under setting [2], 96 % of control; under setting [3], 99 % of control.
As to `NCCCCCCN=C(N)C(N)=NCCCCCCN`, the T/C was 116 % of control (endpoint: mean survival time, dose: 3.13 mg/kg/injection, schedule: Q04DX002 (ip), vehicle: saline); 90 % of control (endpoint: mean survival time, dose: 6.25 mg/kg/injection, schedule: Q04DX002 (ip), vehicle: saline); 101 % of control (endpoint: mean survival time, dose: 12.5 mg/kg/injection, schedule: Q04DX002 (ip), vehicle: saline).
With `NC1CCCCC1N.O=S(=O)([O-])c1ccccc1S(=O)(=O)[O-].[Pt+4]`, the T/C reads like this: (endpoint: median survival time, dose: 1.56 mg/kg/injection, schedule: Q04DX003 (ip), vehicle: saline) 105 % of control; (endpoint: median survival time, dose: 6.25 mg/kg/injection, schedule: Q04DX003 (ip), vehicle: saline) 212 % of control and 216 % of control; (endpoint: median survival time, dose: 12.5 mg/kg/injection, schedule: Q04DX003 (ip), vehicle: saline) 212 % of control and 361 % of control; (endpoint: median survival time, dose: 25.0 mg/kg/injection, schedule: Q04DX003 (ip), vehicle: saline) 244 % of control and 375 % of control; (endpoint: median survival time, dose: 50.0 mg/kg/injection, schedule: Q04DX003 (ip), vehicle: saline) 180 % of control.
As for `[Cl][Pt+2][Cl].[NH-]Nc1nc2ccccc2s1.[NH-]Nc1nc2ccccc2s1`, the T/C (endpoint: mean survival time, dose: 5.0 mg/kg/injection, schedule: Q04DX003 (ip), vehicle: saline with Tween-80) is 102 % of control; the T/C (endpoint: mean survival time, dose: 10.0 mg/kg/injection, schedule: Q04DX003 (ip), vehicle: saline with Tween-80) is 98 % of control; the T/C (endpoint: mean survival time, dose: 20.0 mg/kg/injection, schedule: Q04DX003 (ip), vehicle: saline with Tween-80) was 94 % of control; the T/C (endpoint: mean survival time, dose: 40.0 mg/kg/injection, schedule: Q04DX003 (ip), vehicle: saline with Tween-80) is 98 % of control; the T/C (endpoint: mean survival time, dose: 80.0 mg/kg/injection, schedule: Q04DX003 (ip), vehicle: saline with Tween-80) is 94 % of control.
For `O=C1NC(=O)NC(C(=O)O)N1`, the T/C was 92 % of control (endpoint: mean survival time, dose: 1.56 mg/kg/injection, schedule: Q01DX009 (ip), vehicle: DMSO); 96 % of control (endpoint: mean survival time, dose: 3.12 mg/kg/injection, schedule: Q01DX009 (ip), vehicle: DMSO); 96 % of control (endpoint: mean survival time, dose: 6.25 mg/kg/injection, schedule: Q01DX009 (ip), vehicle: DMSO); 94 % of control and 98 % of control (endpoint: mean survival time, dose: 12.5 mg/kg/injection, schedule: Q01DX009 (ip), vehicle: DMSO); 97 % of control and 98 % of control and 101 % of control (endpoint: mean survival time, dose: 25.0 mg/kg/injection, schedule: Q01DX009 (ip), vehicle: DMSO); 97 % of control and 100 % of control (endpoint: mean survival time, dose: 50.0 mg/kg/injection, schedule: Q01DX009 (ip), vehicle: DMSO). Moreover, the T/C is 94 % of control and 97 % of control (endpoint: mean survival time, dose: 100.0 mg/kg/injection, schedule: Q01DX009 (ip), vehicle: DMSO); 102 % of control (endpoint: mean survival time, dose: 200.0 mg/kg/injection, schedule: Q01DX009 (ip), vehicle: DMSO); 98 % of control (endpoint: mean survival time, dose: 400.0 mg/kg/injection, schedule: Q01DX009 (ip), vehicle: DMSO).
For `C=CC1=CC(=O)OC1=O`, the T/C is, setting by setting: (endpoint: mean survival time, dose: 1.25 mg/kg/injection, schedule: Q01DX001 (ip), vehicle: saline) 91 % of control; (endpoint: mean survival time, dose: 2.5 mg/kg/injection, schedule: Q01DX001 (ip), vehicle: saline) 88 % of control; (endpoint: mean survival time, dose: 5.0 mg/kg/injection, schedule: Q01DX001 (ip), vehicle: saline) 89 % of control; (endpoint: mean survival time, dose: 10.0 mg/kg/injection, schedule: Q01DX001 (ip), vehicle: saline) 89 % of control.
As for `CC(C)(C[P+](C)(c1ccccc1)c1ccccc1)c1ccccc1`, the T/C is 98 % of control under setting [9] and 102 % of control under setting [10].
On to `Cc1ccc(C)c(N=Nc2ccc(O)cc2)c1`, for which the T/C was 104 % of control under setting [6], 100 % of control under setting [7] and 105 % of control under setting [8].
